Results reported in ChEMBL document CHEMBL2146447, “Synthesis and antimicrobial activity of amido linked pyrrolyl and pyrazolyl-oxazoles, thiazoles and imidazoles” (2011).
Active and inactive are the calls of the source. The rule behind the calls is not given here.

Experiments:
Assay type in all cases: functional
Klebsiella pneumoniae [1] = experiment: Antibacterial activity against Klebsiella pneumoniae at 100 ug after 24 hrs by agar well diffusion method; conditions: for zone of inhibition at 100 µg/disc: read-out: DIZ
Bacillus subtilis [2] = experiment: Antibacterial activity against Bacillus subtilis at 50 ug after 24 hrs by agar well diffusion method; conditions: for zone of inhibition at 50 µg/disc: read-out: DIZ
Staphylococcus aureus [3] = experiment: Antibacterial activity against Staphylococcus aureus at 100 ug after 24 hrs by agar well diffusion method; conditions: for zone of inhibition at 100 µg/disc: read-out: DIZ
Pseudomonas aeruginosa [4] = experiment: Antibacterial activity against Pseudomonas aeruginosa at 50 ug after 24 hrs by agar well diffusion method; conditions: for zone of inhibition at 50 µg/disc: read-out: DIZ
Klebsiella pneumoniae [5] = experiment: Antibacterial activity against Klebsiella pneumoniae at 50 ug after 24 hrs by agar well diffusion method; conditions: for zone of inhibition at 50 µg/disc: read-out: DIZ
Staphylococcus aureus [6] = experiment: Antibacterial activity against Staphylococcus aureus assessed at 50 ug after 24 hrs by agar well diffusion method; conditions: for zone of inhibition at 50 µg/disc: read-out: DIZ
Bacillus subtilis [7] = experiment: Antibacterial activity against Bacillus subtilis at 100 ug after 24 hrs by agar well diffusion method; conditions: for zone of inhibition at 100 µg/disc: read-out: DIZ
Aspergillus niger [8] = experiment: Antifungal activity against Aspergillus niger at 100 ug after 48 hrs by agar well diffusion method; conditions: for zone of inhibition at 100 µg/disc: read-out: DIZ
Penicillium chrysogenum [9] = experiment: Antifungal activity against Penicillium chrysogenum at 50 ug after 48 hrs by agar well diffusion method; conditions: for zone of inhibition at 50 µg/disc: read-out: DIZ
Penicillium chrysogenum [10] = experiment: Antifungal activity against Penicillium chrysogenum at 100 ug after 48 hrs by agar well diffusion method; conditions: for zone of inhibition at 100 µg/disc: read-out: DIZ
Aspergillus niger [11] = experiment: Antifungal activity against Aspergillus niger at 50 ug after 48 hrs by agar well diffusion method; conditions: for zone of inhibition at 50 µg/disc: read-out: DIZ
Pseudomonas aeruginosa [12] = experiment: Antibacterial activity against Pseudomonas aeruginosa at 100 ug after 24 hrs by agar well diffusion method; conditions: for zone of inhibition at 100 µg/disc: read-out: DIZ

Compound | zone of inhibition at 100 µg/disc (Klebsiella pneumoniae [1]) [mm] | zone of inhibition at 50 µg/disc (Bacillus subtilis [2]) [mm] | zone of inhibition at 100 µg/disc (Staphylococcus aureus [3]) [mm] | zone of inhibition at 50 µg/disc (Pseudomonas aeruginosa [4]) [mm] | zone of inhibition at 50 µg/disc (Klebsiella pneumoniae [5]) [mm] | zone of inhibition at 50 µg/disc (Staphylococcus aureus [6]) [mm] | zone of inhibition at 100 µg/disc (Bacillus subtilis [7]) [mm] | zone of inhibition at 100 µg/disc (Aspergillus niger [8]) [mm] | zone of inhibition at 50 µg/disc (Penicillium chrysogenum [9]) [mm] | zone of inhibition at 100 µg/disc (Penicillium chrysogenum [10]) [mm] | zone of inhibition at 50 µg/disc (Aspergillus niger [11]) [mm] | zone of inhibition at 100 µg/disc (Pseudomonas aeruginosa [12]) [mm] | further results
O=C(Nc1nc(-c2ccc(Cl)cc2)co1)c1c[nH]cc1-c1ccccc1 | 25 | 17 | 20 | 18 | 23 | 18 | 21 | 26 | 25 | 28 | 24 | 20 | –
O=C(/C=C/c1ccccc1)Nc1nc(-c2ccccc2)co1 | – | 15 | 15 | – | – | 12 | 16 | – | – | – | – | – | diameter of the inhibition zone (DIZ) (Klebsiella pneumoniae [1]): inactive; diameter of the inhibition zone (DIZ) (Pseudomonas aeruginosa [4]): inactive; diameter of the inhibition zone (DIZ) (Klebsiella pneumoniae [5]): inactive; diameter of the inhibition zone (DIZ) (Aspergillus niger [8]): inactive; diameter of the inhibition zone (DIZ) (Penicillium chrysogenum [9]): inactive; diameter of the inhibition zone (DIZ) (Penicillium chrysogenum [10]): inactive; diameter of the inhibition zone (DIZ) (Aspergillus niger [11]): inactive; diameter of the inhibition zone (DIZ) (Pseudomonas aeruginosa [12]): inactive
O=C(Nc1nc(-c2ccccc2)cs1)c1c[nH]cc1-c1ccccc1 | 24 | 20 | 19 | 15 | 22 | 17 | 22 | 20 | 19 | 22 | 18 | 16 | –
O=C(Nc1nc(-c2ccc(Cl)cc2)cs1)C1=NNCC1c1ccccc1 (stereo not drawn) | 28 | 25 | 27 | 22 | 25 | 24 | 26 | 29 | 28 | 31 | 28 | 23 | –
O=C(/C=C/c1ccccc1)Nc1nc(-c2ccccc2)cs1 | 28 | 24 | 23 | 17 | 26 | 21 | 26 | 24 | 23 | 26 | 21 | 18 | –
O=C(Nc1nc(-c2ccccc2)co1)C1=NNCC1c1ccccc1 (stereo not drawn) | – | – | – | – | – | – | – | – | – | – | – | – | diameter of the inhibition zone (DIZ) (Klebsiella pneumoniae [1]): inactive; diameter of the inhibition zone (DIZ) (Bacillus subtilis [2]): inactive; diameter of the inhibition zone (DIZ) (Staphylococcus aureus [3]): inactive; diameter of the inhibition zone (DIZ) (Pseudomonas aeruginosa [4]): inactive; diameter of the inhibition zone (DIZ) (Klebsiella pneumoniae [5]): inactive; diameter of the inhibition zone (DIZ) (Staphylococcus aureus [6]): inactive; diameter of the inhibition zone (DIZ) (Bacillus subtilis [7]): inactive; diameter of the inhibition zone (DIZ) (Aspergillus niger [8]): inactive; diameter of the inhibition zone (DIZ) (Penicillium chrysogenum [9]): inactive; diameter of the inhibition zone (DIZ) (Penicillium chrysogenum [10]): inactive; diameter of the inhibition zone (DIZ) (Aspergillus niger [11]): inactive; diameter of the inhibition zone (DIZ) (Pseudomonas aeruginosa [12]): inactive
O=C(Nc1nc(-c2ccccc2)c[nH]1)c1n[nH]cc1-c1ccccc1 | 14 | 10 | 10 | 9 | 12 | 8 | 13 | 10 | 9 | 12 | 8 | 11 | –
O=C(Nc1nc(-c2ccc(Cl)cc2)cs1)c1n[nH]cc1-c1ccccc1 | 33 | 28 | 29 | 24 | 30 | 27 | 31 | 32 | 31 | 34 | 30 | 26 | –
O=C(/C=C/c1ccccc1)Nc1nc(-c2ccc(Cl)cc2)cs1 | 35 | 27 | 32 | 25 | 33 | 29 | 29 | 33 | 32 | 35 | 31 | 27 | –
